Data: PMC6934184, “Selective DNA-PKcs inhibition extends the therapeutic index of localized radiotherapy and chemotherapy” (The Journal of Clinical Investigation, 2019)

Key:
MCF7 cells [1] = test: clonogenic survival with 2 Gy IR, DNA repair inhibitors; type: cell-based, Human; conditions: 1 h before and 24 h after IR
Procedure: Cells were washed in phosphate-buffered saline (PBS), trypsinized and counted. Cells were then reseeded at a known density in drug-free medium into 10 cm dishes (100 - 10 000 cells/dish) and incubated for 8-21 days. Colonies were fixed using Carnoys fixture (75% v/v methanol, 25% v/v acetic acid, Fisher), stained with crystal violet (0.4% w/v in water), and counted using a ColCount automated colony counter (Oxford Optronics). Cell survival was calculated as a percentage of the untreated control.
Alternatively, exponentially growing MCF7 cells were exposed to a range of concentrations of the PARP inhibitor rucaparib, the ATM inhibitor KU55933, the ATR inhibitor VE-821 or NU5455 for 1 hour prior to irradiation with 2 Gy. Cells were then incubated in the continued presence of the DNA repair inhibitors for a further 24 hours prior to replating. […]

MCF7 cells [2] = test: γH2AX foci nuclear fluorescence after 2.5 Gy; type: cell-based, Human; conditions: 1 μM, 0–24 hours after irradiation
Procedure: Cell line γH2AX and 53BP1 foci immunofluorescence and quantitation
Cells grown on coverslips or in 96-well plates were treated with 1 or 5 µM NU5455 or DMSO 1 hour prior to irradiation (0, 2.5 or 10 Gy) using an RS 320 X-ray Research System (Gulmay Medical). At set timepoints (15 or 30 minutes, or 1, 4, 5, 6, or 24 hours post-irradiation), cells were washed and fixed in methanol or 3% paraformaldehyde (PFA). Cells were blocked and permeabilized in 1% (v/v) goat serum/1% (w/v) BSA/0.1% (v/v) Triton X100 or 0.1% (v/v) Triton X100 containing 10% (w/v) dried milk powder and 2% (w/v) bovine serum albumin, followed by incubation with antibodies against γH2AX (JBW301, Millipore #05-636) and/or 53BP1 (Cell Signaling #4937). Cells were then washed and incubated with Alexa Fluor 488 goat anti-mouse and/or Alexa Fluor 568 goat anti -rabbit antibodies (A11001 or A11011 respectively, Invitrogen). In A549 and Calu-6, cells were Hoechst stained (5 µg/ml), and the average numbers of γH2AX and 53BP1 foci per cell were quantified from 400 nuclei per sample using an In Cell analyzer 1000 (GE Healthcare). For MCF7 cells, coverslips were mounted using Vectashield mounting medium with DAPI (Vector Labs) and imaged using a Leica TCS SPE confocal fluorescence microscope. Total fluorescence intensity was determined using ImagePro Plus 5.0 software (Media Cybernetics).
Clonogenic survival assays […]

## CN(C(=O)CN1CCOCC1)c1ccc2sc3c(-c4cccc5c(=O)cc(N6CC7CCC(C6)O7)oc45)cccc3c2c1 [NU5455]
MCF7 cells [1]; at 1 μM
  SER (sensitization enhancement ratio), enhancement of 2 Gy IR clonogenic cell killing: 11.5 fold
MCF7 cells [1]; at 3 μM
  SER (sensitization enhancement ratio), enhancement of 2 Gy IR clonogenic cell killing: 38 fold
MCF7 cells [2]
  number of γH2AX foci: remained elevated even at 24 hours
